Results: patent US5401490A, “Markers of tissue hypoxia” (priority 1989, dated 1995)

What was measured:
EMT-6 cells = assay: Cell uptake / binding to the acid insoluble (macromolecular) fraction of EMT-6 cells; type: cell-based, mouse
Method: The binding of IAZG to the acid precipitable fraction of EMT-6 cells in vitro is dependent on the degree of hypoxia as shown in FIG. 4. […] To assess the relative efficiency of uptake of the test compounds, the initial binding rate in terms of pmol/10^6 cells/h was determined at several different concentrations. […] This is the highest binding rate measured to date for any 2-nitroimidazole derivative and is 4 to 8 times greater than MISO.
Initial binding rates were measured (FIG. 8) at four concentrations of IAZA (3, 10, 30 and 100 μM), using normally oxygenated and hypoxic EMT-6 cell cultures as described previously (13). Similar studies at the same concentration of misonidazole were used as controls.
EXAMPLE 8 CELL UPTAKE STUDIES
The uptake of test drugs into EMT-6 cell suspensions, under oxic and hypoxic conditions, was determined as described previously (18, 13). The data were analyzed in terms of drug binding to the macromolecular fraction at various times and at various test drug concentrations (FIG. 4). The initial binding rate, in units of pmol/10^6 cells per hour for each drug, was determined from the binding data (FIG. 5).

[1] = system: BALB/C mice bearing subcutaneous EMT-6 tumors; assay: Tissue distribution of radioactivity after intravenous injection; type: in vivo; settings: for Tissue to Blood Ratio, Intestine / Tissue to Blood Ratio, Kidney / Tissue to Blood Ratio, Liver / Tissue to Blood Ratio, Lung / Tissue to Blood Ratio, Muscle / Tissue to Blood Ratio, Stomach / Tissue to Blood Ratio, Tumor: i.v.
Description: Tables 1 and 2 show the percent of injected IAZG and IAZA respectively per gram of wet tissue for selected tissues excised from BALB/C mice bearing EMT-6 tumors. This tumor model is known to have a high hypoxic fraction (0.33) (16). […] Hepatobiliary excretion may play a role in blood clearance as evidenced by elevated liver radioactivity and the appearance of activity in the intestine. Some oxidative or reductive metabolites of the 2-nitroimidazoles may also become bound to liver tissue, as was postulated in an in vivo study with ^14 C-MISO (6). This supposition is supported by the persistence of liver radioactivity at longer time periods. […] At 8 and 24 hours thyroid levels of IAZG are 7.2 and 30.9% of the total body activity and for IAZA they are 7.9 and 33.8% of total body activity. EXAMPLE 11 TISSUE DISTRIBUTION AND EXCRETION Tumor propagation of EMT-6 tumors in BALB/C mice was accomplished by subcutaneous injection of a cell suspension (10^5 cells in 0.1 mL) as described previously (10). Tumors reached about 10 mm in diameter (≈0.5 g) at 12 to 14 days, at which time each animal was given a bolus intravenous injection of ^125 I-labelled test drug via the tail vein (40 to 60 kBq in 0.1 mL). At set time periods the animals were asphyxiated with CO2 and exsanguinated via cardiac puncture. Tissues were dissected, weighed wet into vials and counted for ^125 I-activity. Whole-body activity was determined by summation of total activity in tissues and in residual carcass, and blood activity was determined from the blood aliquot, assuming blood to be 6.5% of the total body weight. EXAMPLE 12 Male BALB/c mice (20-25 g) were inoculated subcutaneously in the left flank with a suspension of murine EMT-6 cells (10^5 cells in 0.1 mL) (14). After 12 to 14 days, when the tumors reached the desired size (8-10 mm diameter), each mouse received a single intravenous (iv) injection of ^125 I-IAZA (59 kBq in 0.1 mL). […] Heart, lung, liver, spleen, muscle, bone, thyroid, kidney, stomach, small intestine, tail, tumor and skin were removed upon necropsy, weighed and analyzed for ^125 I using a Beckman Model 8000 gamma scintillation counter. The remaining carcass mass was also weighed and radioassayed.

O=[N+]([O-])c1nccn1[C@@H]1O[C@H](CI)[C@H](O)[C@H](O)[C@H]1O [IAZG, 1-(6-iodo-6-deoxy-β-D-galactopyranosyl)-2-nitroimidazole]
binding with time (EMT-6 cells): appears to increase linearly with time | oxygen dependence of uptake/binding (EMT-6 cells; 10 μM, various oxygen levels): greatest uptake of IAZG occurs under nitrogen incubation with a decrease in the binding rate as the oxygen concentration to which the cells are exposed is increased | initial binding rate, comparison (EMT-6 cells; hypoxic, vs IAZA or MISO): higher binding rate than IAZA or MISO | Tissue to Blood Ratio, Intestine ([1]; 0.25 h): 3.65 | Tissue to Blood Ratio, Kidney ([1]; 0.25 h): 8.58 | Tissue to Blood Ratio, Liver ([1]; 0.25 h): 3.00 | Tissue to Blood Ratio, Lung ([1]; 0.25 h): 1.51 | Tissue to Blood Ratio, Muscle ([1]; 0.25 h): 0.72 | Tissue to Blood Ratio, Stomach ([1]; 0.25 h): 1.79 | Tissue to Blood Ratio, Tumor ([1]; 0.25 h): 0.95 | Tissue to Blood Ratio, Intestine ([1]; 0.50 h): 3.19 | Tissue to Blood Ratio, Kidney ([1]; 0.50 h): 8.07 | Tissue to Blood Ratio, Liver ([1]; 0.50 h): 2.66 | Tissue to Blood Ratio, Lung ([1]; 0.50 h): 1.31 | Tissue to Blood Ratio, Muscle ([1]; 0.50 h): 0.63 | Tissue to Blood Ratio, Stomach ([1]; 0.50 h): 1.92 | Tissue to Blood Ratio, Tumor ([1]; 0.50 h): 1.31 | Tissue to Blood Ratio, Intestine ([1]; 1 h): 1.42 | Tissue to Blood Ratio, Kidney ([1]; 1 h): 5.56 | Tissue to Blood Ratio, Liver ([1]; 1 h): 1.82 | Tissue to Blood Ratio, Lung ([1]; 1 h): 0.90 | Tissue to Blood Ratio, Muscle ([1]; 1 h): 0.48 | Tissue to Blood Ratio, Stomach ([1]; 1 h): 1.64 | Tissue to Blood Ratio, Tumor ([1]; 1 h): 1.47 | Tissue to Blood Ratio, Intestine ([1]; 2 h): 1.48 | Tissue to Blood Ratio, Kidney ([1]; 2 h): 5.06 | Tissue to Blood Ratio, Liver ([1]; 2 h): 2.55 | Tissue to Blood Ratio, Lung ([1]; 2 h): 1.13 | Tissue to Blood Ratio, Muscle ([1]; 2 h): 0.62 | Tissue to Blood Ratio, Stomach ([1]; 2 h): 2.61 | Tissue to Blood Ratio, Tumor ([1]; 2 h): 1.45 | Tissue to Blood Ratio, Intestine ([1]; 4 h): 1.04 | Tissue to Blood Ratio, Kidney ([1]; 4 h): 4.00 | Tissue to Blood Ratio, Liver ([1]; 4 h): 1.51 | Tissue to Blood Ratio, Lung ([1]; 4 h): 1.16 | Tissue to Blood Ratio, Muscle ([1]; 4 h): 0.49 | Tissue to Blood Ratio, Stomach ([1]; 4 h): 1.85 | Tissue to Blood Ratio, Tumor ([1]; 4 h): 1.56 | Tissue to Blood Ratio, Intestine ([1]; 8 h): 1.05 | Tissue to Blood Ratio, Kidney ([1]; 8 h): 2.47 | Tissue to Blood Ratio, Liver ([1]; 8 h): 1.24 | Tissue to Blood Ratio, Lung ([1]; 8 h): 0.98 | Tissue to Blood Ratio, Muscle ([1]; 8 h): 0.36 | Tissue to Blood Ratio, Stomach ([1]; 8 h): 2.50 | Tissue to Blood Ratio, Tumor ([1]; 8 h): 1.34 | thyroid levels ([1]; 8 hours): 7.2 % of the total body activity | Tissue to Blood Ratio, Intestine ([1]; 24 h): 0.83 | Tissue to Blood Ratio, Kidney ([1]; 24 h): 1.52 | Tissue to Blood Ratio, Liver ([1]; 24 h): 1.32 | Tissue to Blood Ratio, Lung ([1]; 24 h): 1.26 | Tissue to Blood Ratio, Muscle ([1]; 24 h): 0.38 | Tissue to Blood Ratio, Stomach ([1]; 24 h): 0.87 | Tissue to Blood Ratio, Tumor ([1]; 24 h): 1.41 | thyroid levels ([1]; 24 hours): 30.9 % of the total body activity | injected dose in tumor at maximal tumor to blood ratio ([1]; at 4 h): 0.23 % of the injected dose | maximal tumor to blood ratio ([1]; at 4 h): 1.56 | deiodination (increase in thyroid radioactivity) ([1]; longer periods (>4 h)): evidence of deiodination at longer periods (>4 h)
